{
  "source": "patent US6995138B2",
  "about": "“Cross-linked glycopeptide-cephalosporin antibiotics” (priority 2002, dated 2006)",
  "key": {"[1]": {"test_system": "Methicillin-resistant S. aureus (MRSA 33591)", "assay": "Minimal inhibitory concentration (MIC), broth microdilution, MRSA", "type": "cell-based", "conditions": "Staphylococcus aureus, read-out: MIC (minimum inhibitory concentration)", "method": "(§1) Minimal inhibitory concentration (MICs) assays were performed using the broth microdilution method set forth in NCCLS guidelines (see, NCCLS. 2000. Methods for Dilution Antimicrobial Susceptibility Tests for Bacteria That Grow Aerobically; Approved Standard—Fifth Ed., Vol. 20, No. 2). Bacterial strains were obtained from the American Type Tissue Culture Collection (ATCC), Stanford University Hospital (SU), Kaiser Permanente Regional Laboratory in Berkeley (KPB), Massachusetts General Hospital (MGH), the Centers for Disease Control (CDC), the San Francisco Veterans' Administration Hospital (SFVA) or the University of California San Francisco Hospital (UCSF). Vancomycinresistant enterococci were phenotyped as Van A or Van B based on their sensitivity to teicoplanin. Some vancomycin-resistant enterococci that had been genotyped as Van A, Van B, Van C1 or Van C2 were also obtained from the Mayo Clinic.\n(§2) In this assay, cryopreserved bacterial cultures of reference and clinical strains were streaked for isolation on appropriate agar medium (i.e., Trypticase Soy Agar, Trypticase Soy Agar with defibrinated sheep erthrocytes, Brain Heart Infusion Agar, Chocolate Agar). Following incubation to allow formation of colonies, these plates were sealed with parafilm and stored refrigerated for up to two weeks. […] The MIC was read visually as the lowest concentration well with no bacterial growth. […]"}, "[2]": {"test_system": "Methicillin-sensitive S. aureus (MSSA 13709)", "assay": "Minimal inhibitory concentration (MIC), broth microdilution, MSSA", "type": "cell-based", "conditions": "Staphylococcus aureus, read-out: MIC (minimum inhibitory concentration)", "method": "as §1, §2"}, "MSSA 13709": {"test_system": "MSSA 13709", "assay": "Time-kill assay, MSSA", "type": "cell-based, Staphylococcus aureus", "conditions": "bactericidal in 24 hours", "quoted_text": "(§3) Time-Kill Assay This time-kill assay is a method for measuring the rate of bactericidal activity of a test compound.\n(§4) Bacteria were diluted in prewarmed media in shake flasks and incubated with shaking (200 rpm, 35° C.). At 0, 1, 4, and 24 hours samples were withdrawn from the flasks and bacteria were enumerated by plate counting. Subsequent to the initial sampling, a compound to be assayed was added to the shake flask culture. Plate counts at these intervals previous to and following addition of the compound were expressed graphically in a time-kill curve."}, "MRSA 33591 [3]": {"test_system": "MRSA 33591", "assay": "Time-kill assay, MRSA", "type": "cell-based, Staphylococcus aureus", "conditions": "bactericidal in 24 hours", "quoted_text": "as §3, §4"}, "MRSA 33591 [4]": {"test_system": "MRSA 33591", "assay": "In vivo efficacy in neutropenic mice (thigh infection)", "conditions": "Staphylococcus aureus; neutropenic male CD-1 mice, MRSA 33591 thigh infection, iv, 24 hours post-treatment; read-out: ED50 (dose required to produce 50% of the maximum reduction in thigh titre)", "method": "In vivo Efficacy Studies in Neutropenic Mice Animals (male CD-1 mice, 20-30 g) were acquired from Charles Rivers Laboratories (Gilroy, Calif.) and allowed access to food and water ad libitum. Neutropenia was induced via 200 mg/kg intraperitoneal (IP) injection of cyclophosphamide given four and two days prior to the inoculation of bacteria.\nThe organism used was either a susceptible or resistant strain of clinically relevant gram positive pathogens, such as methicillin-susceptible Staphylococcus aureus (MSSA 13709) and methicillin-resistant Staphylococcus aureus (MRSA 33591). The bacterial inoculum concentration was ˜10^6 CFU/mL. Animals were lightly anesthetized with isoflurane and […] of the bacterial inoculum was injected into the anterior thigh. One hour after the inoculation, animals were dosed intravenously with vehicle or the appropriate dose of the test compound. At 0 hours and 24 hours post-treatment, the animals were euthanized (CO2 asphyxiation) and the anterior and posterior thigh collected aseptically. The thigh was placed into 10 mL sterile saline and homogenized. Dilutions of the homogenate were plated onto triptic soy agar plates which were incubated overnight. The number of bacterial colonies on a given plate was multiplied by the dilution factor, divided by the thigh weight (in grams) and expressed as log CFU/g. […]"}},
  "data": [
    {"smiles": "CN[C@H](CC(C)C)C(=O)N[C@H]1C(=O)N[C@@H](CC(N)=O)C(=O)N[C@H]2C(=O)N[C@H]3C(=O)N[C@H](C(=O)N[C@H](C(=O)O)c4cc(O)cc(O)c4-c4cc3ccc4O)[C@H](O)c3ccc(c(Cl)c3)Oc3cc2cc(c3O[C@@H]2O[C@H](CO)[C@@H](O)[C@H](O)[C@H]2O[C@H]2C[C@](C)(N)[C@H](O)[C@H](C)O2)Oc2ccc(cc2Cl)[C@H]1O", "note": "[Vancomycin, vancomycin]", "values": [
      {"measurement": "MIC", "setting": "[1]", "value": 2, "unit": "µg/mL"},
      {"measurement": "MIC", "setting": "[2]", "value": 1, "unit": "µg/mL"},
      {"measurement": "concentration at which bactericidal (≧3 log decrease in bacterial cell numbers)", "setting": "MSSA 13709", "value": 4, "unit": "μg/mL"},
      {"measurement": "concentration at which bactericidal (≧3 log decrease in bacterial cell numbers)", "setting": "MRSA 33591 [3]", "value": 4, "unit": "μg/mL"},
      {"measurement": "ED50", "setting": "MRSA 33591 [4]", "value": 9, "unit": "mg/kg"}
    ]}
  ]
}
